Where a name gives a salt, the structure may show the parent alone.
Columns and labels:
[1] = system: chronic clots, formed of collagen; assay: Gravimetric testing of lytic resistance of chronic collagen clots
Experimental: Gravimetric testing to determine lytic resistance of the clots was carried out as follows. Briefly, an incubation shaker was heated to about 37° C. Clots were allowed to rest at a temperature of about 4° C. for 24 hours prior to testing. About 200-300 mg of clot samples were weighed out, with 1 sample placed per well in a 24 well plate. Weights were recorded. About 1 ml of each solution was placed in each well. The plate was then placed into the incubation shaker and shaken at 160 rpm for 1 hour and 3 hours. The weight was recorded at each time point. Lytic resistance was defined as follows, as the percent clot remaining: [formula] Chronic clots, formed of collagen, were formed and treated with guanidine hydrochloride. Chronic collagen clots were formed by reverse dialysis, as generally disclosed in Knight, et al., “In vitro formation by reverse dialysis of collagen gels containing highly oriented arrays of fibrils,” J. Biomed. Mater. Res., 41, 185-191 (1998). Briefly, about 1.5 grams collagen was combined with about 45 ml distilled water and 5 ml of 0.5 M acetic acid. A dialysis solution was prepared with 2% polyethylene glycol (PEG) in about 10 mM of a Tris base buffer (2000 ml distilled water added to 40 grams PEG and 2.422 grams Tris Base (also known as Trimethylol Aminomethane, Tris(hydroxymethyl)aminomethane)). […]

[2] = system: acute clots, formed from ovine blood; assay: Mechanical compression testing (Texture Analyzer) of acute clots; conditions: acute blood clot, after 1 hour of treatment
Experimental: (§1) Acute clots, formed from ovine blood, were formed and treated with guanidine hydrochloride. Clots were formed following the general procedures set forth in Luo et al., “Creation Of Fibrinogen-Enhanced Experimental Blood Clots To Evaluate Mechanical Thrombectomy Devices For Treatment Of Acute Stroke: An In Vitro Study,” J. Vase. Interv. Radiol. 2012 August; 23(8): 1077-83. Briefly, ovine blood was contacted with about […] thrombin and about 25 mM calcium chloride. Additional acute clots were formed where about 40 mg/ml fibrinongen was first added to the ovine blood.
Guanidine chloride at concentrations of 6 M and 12 M in 0.9% sodium chloride were added to the clots, with untreated clots and clots treated with 0.2 mg/ml tPA used as controls.
The clots were subjected to mechanical testing to determine the effects of the guanidine chloride on the hardness of the clot, as well as its elasticity and lytic resistance. Briefly, a Texture Analyzer manufactured by Texture Technologies Corporation, running Exponent Software from Texture Technologies Corporation was used. […] Clot samples having a thickness of about 1 mm were prepared and placed underneath the probe, until the probe was about 3 mm above the sample surface. The Texture Analyzer subjected the sample to a 0.5 mm compression test, and then a 1 mm compression test. […]

[3] = system: chronic clots, formed of collagen; assay: Mechanical compression testing (Texture Analyzer) of chronic collagen clots
Experimental: The clots were subjected to mechanical testing to determine the effects of the guanidine chloride on the hardness of the clot, as well as its elasticity and lytic resistance. Briefly, a Texture Analyzer manufactured by Texture Technologies Corporation, running Exponent Software from Texture Technologies Corporation was used. […] Clot samples having a thickness of about 1 mm were prepared and placed underneath the probe, until the probe was about 3 mm above the sample surface. The Texture Analyzer subjected the sample to a 0.5 mm compression test, and then a 1 mm compression test. Chronic clots, formed of collagen, were formed and treated with guanidine hydrochloride. Chronic collagen clots were formed by reverse dialysis, as generally disclosed in Knight, et al., “In vitro formation by reverse dialysis of collagen gels containing highly oriented arrays of fibrils,” J. Biomed. Mater. Res., 41, 185-191 (1998). Briefly, about 1.5 grams collagen was combined with about 45 ml distilled water and 5 ml of 0.5 M acetic acid. A dialysis solution was prepared with 2% polyethylene glycol (PEG) in about 10 mM of a Tris base buffer (2000 ml distilled water added to 40 grams PEG and 2.422 grams Tris Base (also known as Trimethylol Aminomethane, Tris(hydroxymethyl)aminomethane)). […] Fibril formation was allowed to proceed over a period of about 48 hours, at which time the collagen was collected and stored in about 10 mM Tris-base solution at a pH of about 7.4 and stored at about 4° C. Additional chronic clots were prepared by combining collagen gels produced as above, and then adding genipin thereto (about 5 mM genipin solution in about 0.9% sodium chloride). Chronic clots thus formed were subjected to the hardness and gravimetric tests described above in Example 1.

[4] = system: acute clots, formed from ovine blood; assay: Gravimetric testing of lytic resistance of acute clots
Experimental: as §1
Gravimetric testing to determine lytic resistance of the clots was carried out as follows. Briefly, an incubation shaker was heated to about 37° C. Clots were allowed to rest at a temperature of about 4° C. for 24 hours prior to testing. About 200-300 mg of clot samples were weighed out, with 1 sample placed per well in a 24 well plate. Weights were recorded.
Guanidine hydrochloride solutions were prepared as follows:
1. 12 M Guanidine hydrochloride (GH): 22.93 g GH+20 ml 0.9% sodium chloride
2. 6 M GH: 10 ml 12 M GH+10 ml 0.9% sodium chloride
3. 3 M GH: 10 ml 6 M GH+10 ml 0.9% sodium chloride
4. 1 M GH: 10 ml 3 M GH+20 ml 0.9% sodium chloride
6. 0.5 M GH: 10 ml 1 M GH+10 ml 0.9% sodium chloride
About 1 ml of each solution was placed in each well. […] The weight was recorded at each time point. […]

[5] = chronic clots prepared without genipin

Structure (SMILES): N=C(N)N [guanidine hydrochloride]
- lytic resistance versus molar concentration ([1]; chronic clots, increasing molar concentration of guanidine hydrochloride): lytic resistance decreased upon increase in the molar concentration
- dissolution of clot (summary) ([1]; chronic collagen-based clots, after 1 hour, even at low concentrations): dissolve most of the collagen clot models
- effect on hardness (summary, FIG. 2) [2]: significant effect on the hardness
- elasticity after treatment [3, 5]: dissolved/broken down to a point where elasticity could not be measured
- hardness after treatment [3, 5]: dissolved/broken down to a point where hardness could not be measured
- effect on hardness (summary, FIG. 3) ([3]; chronic collagen clots): significant decrease in hardness
- clot weight (summary of gravimetric testing) ([4]; acute blood-based clot models, increased concentrations): did not show a decrease in weight
- lytic resistance versus molar concentration ([4]; acute clots, increasing molar concentration of guanidine hydrochloride): lytic resistance decreased upon increase in the molar concentration
